In PubChem BioAssay AID296 (DTP/NCI, 2004):
Where “and” joins values, the source holds several entries; their conditions need not be identical. Equal values may be shown once. Records with an inconclusive call do not appear.

System: MX-1 breast xenograft, nude mice, tumor weight T/C
Assay: NCI In Vivo Anticancer Drug Screen. Data for tumor model Human Mammary Carcinoma MX-1 Xenograft (intrarenal inoculation) in NU/NU Swiss (nude) mice
Details: endpoint: mean tumor weight change, higher = larger tumour
Procedure, shortened: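 Antitumour effect measured in vivo against vehicle controls, expressed as T/C.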

[1] = dose: 75.0 mg/kg/injection, schedule: Q04DX003 (sc), vehicle: saline with Tween-80
[2] = dose: 150.0 mg/kg/injection, schedule: Q04DX003 (sc), vehicle: saline with Tween-80
[3] = dose: 300.0 mg/kg/injection, schedule: Q04DX003 (sc), vehicle: saline with Tween-80
[4] = dose: 1200.0 mg/kg/injection, schedule: Q04DX003 (sc), vehicle: saline with Tween-80
[5] = dose: 25.0 mg/kg/injection, schedule: Q01DX010 (sc), vehicle: saline with Tween-80
[6] = dose: 100.0 mg/kg/injection, schedule: Q01DX010 (sc), vehicle: saline with Tween-80
[7] = dose: 200.0 mg/kg/injection, schedule: Q01DX010 (sc), vehicle: saline with Tween-80
[8] = dose: 300.0 mg/kg/injection, schedule: Q04DX003 (sc), vehicle: Klucel (hydroxypropylcellulose) (HPC)
[9] = dose: 600.0 mg/kg/injection, schedule: Q04DX003 (sc), vehicle: Klucel (hydroxypropylcellulose) (HPC)
[10] = dose: 1200.0 mg/kg/injection, schedule: Q04DX003 (sc), vehicle: Klucel (hydroxypropylcellulose) (HPC)
[11] = dose: 400.0 mg/kg/injection, schedule: Q01DX010 (sc), vehicle: saline with Tween-80
[12] = dose: 100.0 mg/kg/injection, schedule: Q01DX010 (sc), vehicle: saline
[13] = dose: 200.0 mg/kg/injection, schedule: Q01DX010 (sc), vehicle: saline

O=C1C2CC=CCC2C(=O)N1SC(Cl)(Cl)Cl (stereo not given)
T/C (dose: 37.5 mg/kg/injection, schedule: Q04DX003 (sc), vehicle: saline with Tween-80): 85 % of control | T/C [1]: 77 % of control | T/C [2]: 97 % of control and 119 % of control | T/C [3]: 97 % of control and 112 % of control

Nc1nc(N)c(N=O)c(Nc2ccc(Br)cc2)n1
T/C [3]: 42 % of control | T/C (dose: 600.0 mg/kg/injection, schedule: Q04DX003 (sc), vehicle: saline with Tween-80): 42 % of control | T/C [4]: 38 % of control | T/C (dose: 2400.0 mg/kg/injection, schedule: Q04DX003 (sc), vehicle: saline with Tween-80): 40 % of control

CC1(C)CC1(Br)Br
T/C [5]: 71 % of control | T/C [6]: 118 % of control | T/C [7]: 153 % of control

COC1/C=C/C=C(/C)Cc2cc(O)c(Cl)c(c2)N(C)C(=O)CC(OC(=O)C(C)C)C2(C)OC2C(C)C2CC1(O)NC(=O)O2 (stereo not given)
T/C (dose: 1.0 mg/kg/injection, schedule: Q04DX003 (sc), vehicle: saline + alcohol): 95 % of control | T/C (dose: 2.0 mg/kg/injection, schedule: Q04DX003 (sc), vehicle: saline + alcohol): 78 % of control and 87 % of control (2×) | T/C (dose: 16.0 mg/kg/injection, schedule: Q04DX003 (sc), vehicle: saline + alcohol): 3 % of control and -8 % of control

C=C1c2cccc(O)c2C(O)=C2C(=O)[C@]3(O)C(O)=C(C(N)=O)C(=O)[C@@H](N(C)C)[C@@H]3[C@@H](O)[C@H]12
T/C (dose: 75.0 mg/kg/injection, schedule: Q04DX003 (ip), vehicle: Klucel (hydroxypropylcellulose) (HPC)): 89 % of control | T/C (dose: 150.0 mg/kg/injection, schedule: Q04DX003 (ip), vehicle: Klucel (hydroxypropylcellulose) (HPC)): 74 % of control | T/C (dose: 300.0 mg/kg/injection, schedule: Q04DX003 (ip), vehicle: Klucel (hydroxypropylcellulose) (HPC)): 58 % of control

O=CC(O)C(O)C(O)C(O)C(=O)O.[NH-]C1CCCCC1[NH-].[Pt+2] (stereo not given)
T/C (dose: 9.38 mg/kg/injection, schedule: Q04DX003 (sc), vehicle: suspension in saline): 48 % of control | T/C (dose: 18.75 mg/kg/injection, schedule: Q04DX003 (sc), vehicle: suspension in saline): 28 % of control

CC(=O)OC1=NC(C)c2c1cc(OC(C)=O)[nH]c2=O (stereo not given)
T/C [8]: 102 % of control | T/C [9]: 91 % of control | T/C [10]: 70 % of control

CCCCCCCC(=O)OCC(=O)[C@]1(O)Cc2c(O)c3c(c(O)c2[C@@H](OC2CC(N)C(O)C(C)O2)C1)C(=O)c1c(OC)cccc1C3=O (stereo not given in full)
T/C (dose: 4.0 mg/kg/injection, schedule: Q01DX010 (sc), vehicle: suspension in saline): 17 % of control | T/C (dose: 8.0 mg/kg/injection, schedule: Q01DX010 (sc), vehicle: suspension in saline): 2 % of control

CCCCc1ccc2nc(NC(=O)OC)[nH]c2c1
T/C [7]: 109 % of control | T/C [11]: 69 % of control | T/C (dose: 800.0 mg/kg/injection, schedule: Q01DX010 (sc), vehicle: saline with Tween-80): 48 % of control

C[n+]1c(-c2cccc3ccccc23)c2cc(N)ccc2c2ccccc21
T/C (dose: 12.0 mg/kg/injection, schedule: Q04DX003 (sc), vehicle: saline): 103 % of control | T/C (dose: 48.0 mg/kg/injection, schedule: Q04DX003 (sc), vehicle: saline): 92 % of control

Cc1nc(C(Cl)(Cl)Cl)[nH]c(=O)c1SCCO
T/C (dose: 150.0 mg/kg/injection, schedule: Q04DX003 (ip), vehicle: distilled water + alcohol): 162 % of control | T/C (dose: 300.0 mg/kg/injection, schedule: Q04DX003 (ip), vehicle: distilled water + alcohol): 195 % of control | T/C (dose: 600.0 mg/kg/injection, schedule: Q04DX003 (ip), vehicle: distilled water + alcohol): 50 % of control

CC1(C)OC2C(COC(=O)c3ccc([N+](=O)[O-])cc3)OC(NC(=O)N(CCCl)N=O)C2O1 (stereo not given)
T/C [2]: 69 % of control | T/C [4]: 9 % of control

COc1cccc2c1C(=N)c1c(O)c3c(c(O)c1C2=O)C[C@@](O)(C(C)=O)C[C@@H]3OC1CC(N)C(O)C(C)O1 (stereo not given in full)
T/C (dose: 4.0 mg/kg/injection, schedule: Q01DX010 (sc), vehicle: water): 62 % of control | T/C (dose: 16.0 mg/kg/injection, schedule: Q01DX010 (sc), vehicle: water): 13 % of control and 21 % of control

Nc1nc(F)nc2c1ncn2C1OC(COP(=O)(O)O)C(O)C1O (stereo not given)
T/C (dose: 50.0 mg/kg/injection, schedule: Q01DX010 (sc), vehicle: saline): 86 % of control | T/C [12]: 69 % of control | T/C [13]: 91 % of control

O=C(CC(=O)C(F)(F)F)c1csc2ccccc12
T/C [8]: 87 % of control | T/C [9]: 91 % of control | T/C [10]: 111 % of control | T/C (dose: 2400.0 mg/kg/injection, schedule: Q04DX003 (sc), vehicle: Klucel (hydroxypropylcellulose) (HPC)): 99 % of control

C(CC1CO1)C1CO1 (stereo not given)
T/C [12]: -59 % of control and -41 % of control | T/C (dose: 150.0 mg/kg/injection, schedule: Q04DX003 (sc), vehicle: suspension in saline): 1 % of control and 11 % of control | T/C (dose: 300.0 mg/kg/injection, schedule: Q04DX003 (sc), vehicle: suspension in saline): 4 % of control

CC[n+]1c(-c2ccccc2)c2cc(N)ccc2c2ccc(N)cc21
T/C (dose: 15.0 mg/kg/injection, schedule: Q04DX003 (sc), vehicle: saline): 119 % of control | T/C (dose: 30.0 mg/kg/injection, schedule: Q04DX003 (sc), vehicle: saline): 110 % of control | T/C (dose: 60.0 mg/kg/injection, schedule: Q04DX003 (sc), vehicle: saline): 83 % of control

CN=C(N)N/N=C(\C)c1ccc2oc3ccc(/C(C)=N/NC(N)=NC)cc3c2c1
T/C [1]: 72 % of control | T/C [2]: 86 % of control | T/C [3]: 80 % of control

Cc1ccc(C(=O)NC2C(=O)NC(C(C)C)C(=O)N3CCCC3C(=O)N(C)CC(=O)N(C)C(C(C)C)C(=O)OC2C)c2c1Oc1c(c(C(=O)NC3C(=O)NC(C(C)C)C(=O)N4CCCC4C(=O)N(C)CC(=O)N(C)C(C(C)C)C(=O)OC3C)c3nc(-c4ccccc4)c(=O)oc3c1C)N2 (stereo not given)
T/C (dose: 0.25 mg/kg/injection, schedule: Q04DX003 (ip), vehicle: water): 77 % of control | T/C (dose: 0.5 mg/kg/injection, schedule: Q04DX003 (ip), vehicle: water): 75 % of control | T/C (dose: 1.0 mg/kg/injection, schedule: Q04DX003 (ip), vehicle: water): 49 % of control | T/C (dose: 2.0 mg/kg/injection, schedule: Q04DX003 (ip), vehicle: water): 51 % of control | T/C (dose: 4.0 mg/kg/injection, schedule: Q04DX003 (ip), vehicle: water): 12 % of control

COc1ccc2c(NCCCCCCCCNc3c4ccccc4nc4cc(OC)ccc34)c3ccccc3nc2c1
T/C (dose: 8.0 mg/kg/injection, schedule: Q04DX003 (sc), vehicle: suspension in saline): 68 % of control | T/C (dose: 16.0 mg/kg/injection, schedule: Q04DX003 (sc), vehicle: suspension in saline): 78 % of control | T/C (dose: 32.0 mg/kg/injection, schedule: Q04DX003 (sc), vehicle: suspension in saline): 104 % of control | T/C (dose: 64.0 mg/kg/injection, schedule: Q04DX003 (sc), vehicle: suspension in saline): 92 % of control

CN1c2c(nc(N)[nH]c2=O)NCC1CCNc1ccc(C(=O)NC(CCC(=O)O)C(=O)O)cc1 (stereo not given)
T/C [12]: 83 % of control | T/C (dose: 100.0 mg/kg/injection, schedule: Q01DX010 (sc), vehicle: suspension in saline): 60 % of control | T/C [13]: 76 % of control | T/C (dose: 400.0 mg/kg/injection, schedule: Q01DX010 (sc), vehicle: saline): 81 % of control | T/C (dose: 400.0 mg/kg/injection, schedule: Q01DX010 (sc), vehicle: suspension in saline): 25 % of control | T/C (dose: 800.0 mg/kg/injection, schedule: Q01DX010 (sc), vehicle: saline): 62 % of control

CCOC(=O)c1ccc(NC(=O)Nc2nccs2)cc1
T/C [5]: 100 % of control | T/C [6]: 97 % of control and 108 % of control | T/C [7]: 63 % of control | T/C [11]: 186 % of control

C[n+]1cccc(NC(=O)c2ccc(NC(=O)C34CCC(C(=O)Nc5ccc(C(=O)Nc6ccc[n+](C)c6)cc5)(CC3)CC4)cc2)c1
T/C (dose: 12.5 mg/kg/injection, schedule: Q04DX003 (sc), vehicle: saline with Tween-80): 118 % of control | T/C (dose: 25.0 mg/kg/injection, schedule: Q04DX003 (sc), vehicle: saline with Tween-80): 64 % of control | T/C (dose: 50.0 mg/kg/injection, schedule: Q04DX003 (sc), vehicle: saline with Tween-80): 35 % of control | T/C (dose: 100.0 mg/kg/injection, schedule: Q04DX003 (sc), vehicle: saline with Tween-80): 27 % of control
